In ChEMBL document CHEMBL3880386, “Combination comprising the MEK inhibitor N-{3-[3-cyclopropyl-5-(2-fluoro-4-iodo- phenylamino)-6,8-dimethyl-2,4,7-trioxo-3,4,6,7-tetrahydro-2H-pyrido[4,3-d]pyrimidin-1-yl]phenyl}acetamide and the Akt inhibitor N-{(1S)-2-amino-1-[(3-fluorophenyl)methyl]ethyl}-5-chloro-4-(4-chloro-1- …” (2014):

Key:
[1] = (§1) Growth inhibition of human NCI-H23 cells assessed combination index at 1:10 molar ratio of compound in presence of N-{3-[3-cyclopropyl-5-(2-fluoro-4-iodo-phenylamino)-6,8-dimethyl- 2,4,7-trioxo-3,4,6,7-tetrahydro-2H-pyrido[4,3-d]pyrimidin-1-yl]phenyl}acetamide incubated for 72 hrs by Cell-titer-Glo reagent based assay; type: functional
[2] = as §1, with “LS1034” for “NCI-H23”; type: functional, LS-1034
[3] = Growth inhibition of human A427 cells at 1:10 molar ratio of compound in presence of N-{3-[3-cyclopropyl-5-(2-fluoro-4-iodo-phenylamino)-6,8-dimethyl- 2,4,7-trioxo-3,4,6,7-tetrahydro-2H-pyrido[4,3-d]pyrimidin-1-yl]phenyl}acetamide incubated for 72 hrs by Cell-titer-Glo reagent based assay; type: functional; conditions: A-427, 72 h
[4] = Growth inhibition of human RKO cells at 1:10 molar ratio of compound in presence of N-{3-[3-cyclopropyl-5-(2-fluoro-4-iodo-phenylamino)-6,8-dimethyl- 2,4,7-trioxo-3,4,6,7-tetrahydro-2H-pyrido[4,3-d]pyrimidin-1-yl]phenyl}acetamide incubated for 72 hrs by Cell-titer-Glo reagent based assay; type: functional
[5] = Growth inhibition of human COR-L23 cells at 1:10 molar ratio of compound in presence of N-{3-[3-cyclopropyl-5-(2-fluoro-4-iodo-phenylamino)-6,8-dimethyl- 2,4,7-trioxo-3,4,6,7-tetrahydro-2H-pyrido[4,3-d]pyrimidin-1-yl]phenyl}acetamide incubated for 72 hrs by Cell-titer-Glo reagent based assay; type: functional; conditions: COR-L23, 72 h
[6] = Growth inhibition of human NCI-H1792 cells at 1:10 molar ratio of compound in presence of N-{3-[3-cyclopropyl-5-(2-fluoro-4-iodo-phenylamino)-6,8-dimethyl- 2,4,7-trioxo-3,4,6,7-tetrahydro-2H-pyrido[4,3-d]pyrimidin-1-yl]phenyl}acetamide incubated for 72 hrs by Cell-titer-Glo reagent based assay; type: functional; conditions: NCI-H1792, 72 h
[7] = (§2) Growth inhibition of human NCI-H727 cells assessed combination index at 1:10 molar ratio of compound in presence of N-{(1S)-2-amino-1-[(3-fluorophenyl)methyl]ethyl}-5-chloro-4-(4-chloro-1-methyl-1H-pyrazol-5-yl)-2-thiophenecar- boxamide incubated for 72 hrs by Cell-titer-Glo reagent based assay; type: functional
[8] = as §2, with “MDA-MB-175-VII” for “NCI-H727”; type: functional
[9] = Growth inhibition of human NCI-H1355 cells assessed combination index at 1:10 molar ratio of compound in presence of N-{(1S)-2-amino-1-[(3-fluorophenyl)methyl]ethyl}-5-chloro-4-(4-chloro-1-methyl-1H-pyrazol-5-yl)-2-thiophenecar- boxamide incubated for 72 hrs by Cell-titer-Glo reagent based assay; type: functional
[10] = Growth inhibition of human HT-29 cells at 1:10 molar ratio of compound in presence of N-{(1S)-2-amino-1-[(3-fluorophenyl)methyl]ethyl}-5-chloro-4-(4-chloro-1-methyl-1H-pyrazol-5-yl)-2-thiophenecar- boxamide incubated for 72 hrs by Cell-titer-Glo reagent based assay; type: functional; conditions: HT-29, 72 h
[11] = Growth inhibition of human SW1573 cells at 1:10 molar ratio of compound in presence of N-{(1S)-2-amino-1-[(3-fluorophenyl)methyl]ethyl}-5-chloro-4-(4-chloro-1-methyl-1H-pyrazol-5-yl)-2-thiophenecar- boxamide incubated for 72 hrs by Cell-titer-Glo reagent based assay; type: functional; conditions: SW1573, 72 h
[12] = Growth inhibition of human HT-29 cells assessed combination index at 1:10 molar ratio of compound in presence of N-{(1S)-2-amino-1-[(3-fluorophenyl)methyl]ethyl}-5-chloro-4-(4-chloro-1-methyl-1H-pyrazol-5-yl)-2-thiophenecar- boxamide incubated for 72 hrs by Cell-titer-Glo reagent based assay; type: functional
[13] = Growth inhibition of human EFM19 cells at 1:10 molar ratio of compound in presence of N-{(1S)-2-amino-1-[(3-fluorophenyl)methyl]ethyl}-5-chloro-4-(4-chloro-1-methyl-1H-pyrazol-5-yl)-2-thiophenecar- boxamide incubated for 72 hrs by Cell-titer-Glo reagent based assay; type: functional; conditions: EFM-19, 72 h

SMILES	CI [1]	CI [2]	IC50 [3] [µM]	IC50 [4] [µM]	IC50 [5] [µM]	IC50 [6] [µM]	CI [7]	CI [8]	CI [9]	IC50 [10] [µM]	IC50 [11] [µM]	CI [12]	IC50 [13] [µM]
Cn1ncc(Cl)c1-c1cc(C(=O)N[C@H](CN)Cc2cccc(F)c2)sc1Cl [AFURESERTIB]	0.76	0.84	0.103	0.054	0.368	0.374	–	–	–	–	–	–	–
CC(=O)Nc1cccc(-n2c(=O)n(C3CC3)c(=O)c3c(Nc4ccc(I)cc4F)n(C)c(=O)c(C)c32)c1 [TRAMETINIB]	–	–	–	–	–	–	1.09	0.39	0.57	0.001	0.038	0.95	0.03
